Test [1] concerns the target T1, Ba/F3-FL-EGFR-V769-D770 ins ASV (Homo sapiens, UniProt P00533, cells depend on it, form not given).
T1 construct: rows headed: activity relative to the activity of TAK-788; Ba/F3-FL-EGFR
The experiment in a line: Cell proliferation inhibitory activity test (CellTiter-Glo), EGFR exon 20 insertion mutation. The test is classed as cell-based. Particulars: Ba/F3-FL-EGFR exon 20 insertion lines, see Table 6.

The target of test [2] is T2, Ba/F3-FL-EGFR-V769-D770 ins ASV (Homo sapiens, UniProt P00533, DUP767-769, cells depend on it).
T2 construct: Ba/F3-FL-EGFR IC50 (nM) V769-D770ins ASV; other: 72 h; class symbols; Ba/F3-FL-EGFR IC50 (nM) V769-D770ins ASV
The description is as above. The test is classed as cell-based. Conditions: 72 h, read-out: Ba/F3-FL-EGFR IC50 (nM) V769-D770ins ASV.
Description: (§1) Cell Proliferation Inhibitory Activity Test Experiment of EGFR Exon 20 Insertion Mutation:
(§2) Cells such as Ba/F3-FL-EGFR-V769-D770 ins ASV, Ba/F3-FL-EGFR-D77-N771 ins SVD, Ba/F3-FL-EGFR-H773-V774 ins NPH, Ba/F3-FL-EGFR-A763-Y764 ins FQEA, constructed by Hefei Precedo Pharmaceuticals Co., Ltd.
(§3) 1000× compound mother liquor was prepared using DMSO, diluted to 20× final concentration using a culture medium, set aside.
(§4) Cells obtained after centrifugation were suspended with a certain amount of the culture medium and counted. The cell suspension solution was adjusted to a specified density using the culture medium, the diluted cell suspension solution was taken into a 96-well plate; 5 μl of 20× compound solution was added to each well of the 96-well plate, the content of DMSO in the final system was 0.1%; the 96-well plate was incubated for 72 h in a 5% CO2 cell incubator at 37° C.
(§5) The 96-well plate was brought to room temperature before detection, 50 μl of CellTiter-Glo® reagent was added to each well, the plate was read after being shaken for 2 minutes on a shaker and placed for 10 minutes at room temperature.
(§6) Inhibition rate (Inh %) relative to control wells processed by a solvent (DMSO) was calculated using the following equation: Inhibition rate (Inh %)=100−(RLU compound−RLU blank)/(RLU control−RLU blank)*100%

A further test relates to PC9 (EGFRdel19) cells. Put plainly: Cell proliferation inhibitory activity test (WST-8) of related EGFR mutations. The test is classed as cell-based. Particulars: for IC50: 72 h, cell viability, read-out: IC 50 (nM) PC-9 (EGFRdel19).
The target of test [3] is Ba/F3 (EGFRdel19/L858R/C797S) (Homo sapiens, UniProt P00533, C797S/L858R, cells depend on it, form not given). Described as above. The test is classed as cell-based. Particulars: 72 h, cell viability; read-out: IC 50 (nM) Ba/F3 (EGFRdel19/L858/797s).
The subject of test [4] is H-1975 (EGFRL858R/T790M) cells. Described as above. The test is classed as cell-based. Particulars: for IC50: Homo sapiens, NCI-H1975, 72 h, cell viability, read-out: IC 50 (nM) H-1975 (EGFRL858/T790M).
Description: (§7) Cell Proliferation Inhibitory Activity Test Experiments of Related EGFR Mutations: 1.
(§8) Cell culture medium: RPMI containing 10% fetal bovine serum, 5 mM HEPES, and 2 mM glutamine.
(§9) Incubated overnight in a 5% carbon dioxide incubator at 37° C.
(§10) The compound was diluted to the required concentration in the culture medium at five times the final concentration. 20 microliters of the compound diluent was transferred to a culture plate containing 80 microliters of the cells incubated overnight, and continued to be incubated for 72 hours.
(§11) After 72 hours, 10 microliters of 6 mg/ml WST8 solution dissolved in a phosphate buffer solution was added, and incubated for 3 hours in 5% carbon dioxide at 37° C. A light absorption value at 450 nm was read and subtracted by an absorption value at 650 nm.
(§12) The obtained light absorption value was used to calculate cell viability according to the following equation: Cell viability %=(OD determination value/OD drug-free cell)×100
The target in test [5] is Ba/F3-FL-EGFR-H773-V774 ins NPH (Homo sapiens, UniProt P00533, DUP771-773, cells depend on it). Put plainly: Cell proliferation inhibitory activity test (CellTiter-Glo), EGFR exon 20 insertion mutation. The test is classed as cell-based. Particulars: 72 h, read-out: Ba/F3-FL-EGFR IC50 (nM) H773-V774ins NPH.
Description: as §1, §2, §3, §4, §5, §6
The target in test [6] is Ba/F3-FL-EGFR-A763-Y764 ins FQEA (Homo sapiens, UniProt P00533, INS763FQEA, cells depend on it). The test is described as above. The test is classed as cell-based. Conditions: 72 h, read-out: Ba/F3-FL-EGFR IC50 (nM) A763-Y764ins FQEA.
Description: as §1, §2, §3, §4, §5, §6
In test [7] the target is Ba/F3-FL-EGFR-D77-N771 ins SVD (Homo sapiens, UniProt P00533, DUP768-770, cells depend on it). Described as above. The test is classed as cell-based. Conditions: 72 h, read-out: Ba/F3-FL-EGFR IC50 (nM) D77-N771ins SVD.
Description: as §1, §2, §3, §4, §5, §6
The target in test [8] is EGFR exon 20 insertion mutant kinase A763_Y764insFHEA (Homo sapiens, UniProt P00533, INS763FHEA). Put plainly: Kinase activity assay (33P-ATP filter-binding), EGFR exon 20 insertion mutant kinase A763_Y764insFHEA. Particulars: ATP Km concentration; 10 concentrations. The test is classed as biochemical.
Test [9] has as its target EGFR exon 20 insertion mutant kinase D770-N771insNPG (Homo sapiens, UniProt P00533, INS770NPG). Put plainly: Kinase activity assay (33P-ATP filter-binding), EGFR exon 20 insertion mutant kinase D770-N771insNPG. The test is classed as biochemical. Conditions: ATP Km concentration; 10 concentrations.

From patent US12509441B2, “Compounds used as kinase inhibitors and application thereof” (TYK MEDICINES (ZHENGZHOU), INC., priority 2020, dated 2025) come the findings set out here.

Where two headings read alike, the source gives them in different places. Some results are limits rather than exact numbers.

Description for PC9 (EGFRdel19) cells: as §7, §8, §9, §10, §11, §12

As to `C=CC(=O)Nc1cc(Nc2ncc(-c3nnc(C)o3)c(-c3cn(C)c4ccccc34)n2)c(OC)cc1N(C)C1[C@H]2CN(C)C[C@@H]12` (some centres unmarked) [Example 18], the “activity relative to the activity of TAK-788” value in test [1] is recorded as “around 2 times”. Besides, the GI50 in [2] (class symbols) is less than 5 nM; in test [2], 1.9 nM; in [3], 3980 nM; in test [5] (class symbols), less than 5 nM; in test [5] it was 2.8 nM; in test [6] (class symbols), less than 5 nM. Besides, the GI50 in test [6] was 1.8 nM; in [7] (class symbols) it was less than 5 nM; in test [7] it was 2.8 nM. Further, the IC50 is 6.61 nM with PC9 (EGFRdel19) cells and 91.2 nM in [4]. Further, the “cytostatic activity compared with osimertinib and TAK788” value (in the test on PC9 (EGFRdel19) cells (C-9 (EGFRdel19)); in test [4] (H-1975 (EGFRL858/T790M))) was “not much different from osimertinib activity” throughout.
For the molecule `C=CC(=O)Nc1cc(Nc2ncc(C(=O)OC(C)C)c(-c3cn(C)c4ccccc34)n2)c(OC)cc1N(C)CCN(C)C` [TAK788, reference compound], the IC50 in test [8] turned out to be 4.19 nM; with PC9 (EGFRdel19) cells, 24.1 nM; in test [4], 101 nM; in [9], 0.731 nM. The GI50 amounted to 4 nM in test [2]; 2630 nM in test [3]; 3.6 nM in test [5]; 3.3 nM in test [6]; 3.9 nM in [7].
